In US20230012936A1, “COMBINATION THERAPY USING GLUCAGON AND GLP-1 CO-AGONISTS FOR THE TREATMENT OF OBESITY” (MEDIMMUNE, LLC, priority 2019, published 2023):

Columns and labels:
clinical = conditions: for Cmax: Dapagliflozin mean Cmax
Method: The Cmax and the corresponding tmax were identified from the observed data. Log-linear regression of the terminal phase yielded the terminal rate constant (λz). The area under the plasma concentration time-curve during the dosing interval (AUCτ) was calculated by the log-linear trapezoidal rule. The area under the curve to infinity (AUC0-inf) was calculated as the sum of AUC(o-t) and Ct/z, where Ct is the observed plasma concentration obtained from the log-linear regression analysis of the last quantifiable time point and z is the terminal phase rate constant. Clearance (CL/F) was determined by dose/AUC0-inf, and the terminal half-life (t1/2) was calculated as 0.693/λz.

[1] = Safety: adverse events, laboratory values, vital signs, ECG; assay type: in vivo, human; conditions: as judged by the investigator
Method: Blood samples were collected to evaluate anti-drug antibody (ADA) response to cotadutide. Serum samples were evaluated for ADA using a validated immunoassay. Adverse events (AEs) and serious adverse events (SAEs) were collected from the time of informed consent throughout the treatment period and including the follow-up period. AEs and SAEs were graded by severity and relationship to investigational product and SAEs were assessed for relationship to protocol procedures.

[2] = 10 mg/day PO, cited from earlier work

## CCOc1ccc(Cc2cc([C@@H]3O[C@H](CO)[C@@H](O)[C@H](O)[C@H]3O)ccc2Cl)cc1 [dapagliflozin]
clinical; dapagliflozin 10 mg/day PO
  Impact of cotadutide on dapagliflozin oral absorption: marginal impact
clinical; human, plasma, oral, 10 mg/day
  half-life: ~8 h
clinical; human, plasma, oral, cotadutide group, Day −1 (cotadutide not yet co-administered)
  Cmax: 117 ng/mL
clinical; human, plasma, oral, group receiving dapagliflozin and placebo, Day 7
  Cmax: 92 ng/mL
clinical; human, plasma, oral, group receiving dapagliflozin and placebo, Day 14
  Cmax: 95.6 ng/mL
clinical; human, plasma, oral, group receiving dapagliflozin and placebo, Day 28
  Cmax: 112 ng/mL
clinical; human, plasma, oral, group receiving dapagliflozin and placebo, Day −1
  Cmax: 110 ng/mL
clinical; human, plasma, oral, in the presence of cotadutide, Day 7
  Cmax: 84.4 ng/mL
clinical; human, plasma, oral, in the presence of cotadutide, Day 14
  Cmax: 61.1 ng/mL
clinical; human, plasma, oral, in the presence of cotadutide, Day 28
  Cmax: 94.2 ng/mL
[1]
  Incidence of dapagliflozin-related TEAEs, cotadutide group: 4.0%
  Incidence of dapagliflozin-related TEAEs, placebo group: 8.3%
[2]; Dapagliflozin NDA 202293
  Dapagliflozin Cmax (literature): 120 ng/mL
  Dapagliflozin tmax (literature): 1 h
[2]; literature data
  Dapagliflozin half-life (literature): 15 h
